Earlier results as cited in patent US20050147578A1, “Topical cosmetic composition having a natural plant active ingredient and method of using same” (Avon Products, Inc., priority 2001, published 2005).

Test system: Heat shock 70 protein

## O=[As]O [Sodium arsenite, sodium arsenite]
  production of heat shock protein (known effect of positive control): stimulate the production of heat shock protein
